PubChem BioAssay (NCI)
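These data come from cells grown in 96-well plates and exposed to compound for 48 hours at five concentrations. Here, GI50 denotes the concentration required for 50% inhibition of growth. At the TGI there is no net growth.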

Key:
Experiment in all cases: NCI-60 cell line screen, 48 h
HL-60(TB) leukemia = tested on: HL-60(TB) leukemia
KM12 colon = tested on: KM12 colon
M14 melanoma = tested on: M14 melanoma
SNB-75 CNS = tested on: SNB-75 CNS
SW-620 colon = tested on: SW-620 colon
T-47D breast = tested on: T-47D breast
U251 CNS = tested on: U251 CNS
UO-31 renal = tested on: UO-31 renal

Row | SMILES | GI50 (HL-60(TB) leukemia) [µM] | TGI (HL-60(TB) leukemia) [µM] | GI50 (KM12 colon) [µM] | TGI (KM12 colon) [µM] | GI50 (M14 melanoma) [µM] | TGI (M14 melanoma) [µM] | GI50 (SNB-75 CNS) [µM] | TGI (SNB-75 CNS) [µM] | GI50 (SW-620 colon) [µM] | TGI (SW-620 colon) [µM] | GI50 (T-47D breast) [µM] | TGI (T-47D breast) [µM] | GI50 (U251 CNS) [µM] | TGI (U251 CNS) [µM] | GI50 (UO-31 renal) [µM] | TGI (UO-31 renal) [µM]
1 | CCc1n(Cc2ccc3ccccc3c2)cc[n+]1Cc1ccc2ccccc2c1 | 0.249 | 1.17 | 0.549 | 1.89 | 1.21 | 2.96 | 0.335 | 1.71 | 0.964 | 2.55 | 0.425 | 4.7 | 0.578 | 2.2 | 2.22 | 8.86
2 | C[C@H]1CCC/C=C/[C@@H]2C[C@H](O)C[C@H]2[C@H](O)C(O)C(O)C(=O)O1 (some centres not stated) | 0.251 | 2.31 | 0.396 | 1.38 | 3.61 | > 100 | 0.578 | – | 3.26 | > 100 | 5.96 | > 100 | 3.51 | > 100 | 3.44 | > 76.1
3 | C(#Cc1ccccc1C#Cc1cnccn1)c1cnccn1 | 9.32 | 22.5 | 26.1 | 68.3 | 19.3 | 48.9 | 29.2 | > 100 | 40.2 | > 100 | 39.7 | > 100 | 48 | > 100 | > 40.3 | > 68.4
4 | CN(C)Cc1c[nH]c2nc[nH]c(=O)c12 | – | 42.4 | – | > 100 | – | > 100 | – | > 100 | – | > 100 | – | > 100 | – | > 100 | – | > 100
5 | Nc1ccccc1SC(CC(=O)c1ccccc1)c1c(Cl)cccc1Cl (configuration not stated) | 3.36 | 11.7 | 2.26 | 5.4 | 3.25 | 12.9 | 10.8 | 30.1 | 2.28 | 5.21 | 2.81 | 13.4 | 4.24 | 15.3 | 1.27 | 4.64
6 | COc1cc(/C=C/C(=O)c2cccc(-n3cc(-c4ccccc4)[nH]c3=O)c2)ccc1O | 2.07 | 5.53 | 2.02 | 4.68 | 3.57 | 18 | 3.21 | 12.3 | 2.48 | 6.3 | 2.72 | 8.59 | 2.5 | 7.9 | 2.01 | 8.73
7 | Cc1ccc(-c2csc3ncnc(Nc4cccc(O)c4)c23)cc1 | 18.2 | 51.5 | 25.7 | 69 | 17.9 | 37.3 | 39.6 | > 100 | 42.4 | > 100 | 44 | > 100 | 22.5 | 58.6 | 35.5 | > 100
8 | Cc1cc(N)c2cc(NC(=O)/C=C\c3ccccc3Cl)ccc2n1 | 1.67 | 3.31 | 0.767 | 2.11 | 0.748 | 2.02 | 1.7 | 3.21 | 0.214 | 0.478 | – | – | 0.269 | 0.724 | 1.78 | 3.22
